Values after ≈ are worked out from the molar mass of the structure shown. Non-standard residues stand in square brackets, D forms with d. Residues, ends and D or L forms follow the SMILES beside them. Dip = N[C@H](C(=O)O)C(c1ccccc1)c1ccccc1
Tests used:
MRSA (ATCC BAA-1556) = experiment: microbe, parasite or virus in culture; format: cell-based, Methicillin-Resistant Staphylococcus aureus; conditions: ATCC BAA-1556, 24 h
Protocol: (§1) The antibacterial activity of all ten synthesized linear and cyclic peptides was evaluated against MRSA (ATCC BAA-1556), S. aureus (ATCC 29213), E. faecium (ATCC 700221), S. pneumoniae (ATCC 51938), E. faecalis (ATCC 29212), B. subtilis (ATCC-6633), K. pneumoniae (ATCC BAA-1705), P. aeruginosa (ATCC 27883), and E. coli (ATCC 25922). Meropenem and daptomycin were used as positive controls for this study. Certain peptides are marked as “NT” (not tested) against specific bacterial strains based on initial screening data. […] The MIC was determined by micro-broth dilution protocol, where the minimal concentrations were determined to be in wells with no visible bacterial growth.
(§2) All bacterial experiments were carried out in a laminar flow hood (Labconco, Kansas City, MO, USA). The bacterial strains were cultured following the guidelines set by the Clinical Laboratory Standards Institute (CLSI). Antibacterial assays were performed using a standard microtiter dilution method as described in previous studies. The minimum inhibitory concentration (MIC) refers to the lowest peptide concentration that inhibits bacterial growth in wells with no visible bacterial growth. MIC was determined by micro-broth dilution. Bacteria were cultured overnight in 6 mL of Luria Broth (LB). A stock solution of the peptide was prepared in water and DMSO, and a test compound solution with a concentration of 256 µg/mL was made in LB. Meropenem, with a solubility of 8 mg/mL, was prepared as a stock solution at 4 mg/500 µL. An aliquot of the overnight bacteria culture was diluted in normal saline (NS, 1 mL) until achieving a 0.5 McFarland turbidity (1.5 × 10^8 bacterial cell CFU/mL). A 0.5 McFarland compared solution (60 µL) was added to Mueller Hinton Broth (MH) 8940 µL to generate a 1/150 dilution. A 200 µL test compound solution was added to the first well of a 96-well plate, and the remaining wells (2–12) were filled with 100 µL of MH media using a multi-channel pipette from a sterile reservoir. A concentration of […] of the tested peptides was prepared from a stock solution of the samples for testing in Muller−Hinton broth MH media. Peptides stock solution was dissolved in 5% DMSO in water, and the final concentration of DMSO in the first well of assay plate was 2.5% DMSO/H2O and diluted across the assay plate.
(§3) A 100 µL sample from well 1 was pipetted into well 2, and the solution was mixed thoroughly by pipetting up and down. Next, 100 µL was transferred from well 2 to well 3, followed by thorough mixing. This 2-fold serial dilution process continued through well 11, with no additions made to well 12. The final 100 µL from well 11 was discarded. After completing the serial dilution, each well (1–12) contained 100 µL of solution. The bacterial culture in MH media was vortexed and transferred to a sterile reservoir, from which 100 µL was added to each well using a 12-channel pipette. (Note: The dilutions were further diluted upon adding the bacterial solution; for example, the concentration in well 1 started at […] after the addition of the bacterial culture.) The plates were incubated overnight at 37 °C for 24 h. All experiments were performed in triplicate and repeated twice, with controls consisting of bacteria in MH media and positive controls of daptomycin or meropenem.

C. albicans (ATCC 60193) = experiment: microbe, parasite or virus in culture; format: cell-based, Candida albicans; conditions: ATCC 60193, 24 h
Protocol: (§4) The antifungal activity of all ten synthesized linear and cyclic peptides was evaluated against C. albicans (ATCC 60193), C. parapsilosis (ATCC 22019), and A. fumigatus (AF-293). Fluconazole and amphotericin B were used as positive controls for this study. The MIC was determined at concentrations in wells with no visible fungal growth.
In this study, C. albicans and C. parapsilosis were cultured on Yeast Peptone Dextrose (YPD) agar containing 1% w/v yeast extract, 2% w/v peptone, 2% w/v D-glucose, and 1.5% agar. A single colony from the agar was selected and cultured in Tryptone soy broth supplemented with 0.1% D-glucose, then incubated for 24 h at 37 °C. The cells were washed twice with PBS by centrifugation at 2000 RPM for 5 min. The pellet was resuspended in 5 mL of PBS, diluted in RPMI 1640 with L-glutamine, supplemented with 2% D-glucose, and the pH adjusted using HEPES buffer. The suspension was then incubated for 50 min at 35 °C to achieve a final cell concentration of 10^6 cells/mL.
Peptide concentrations of 50, 25, 12.5, 6.25, and 3.1 μg/mL were tested in triplicate and repeated twice. Each well of a 96-well plate was inoculated with the prepared inoculum suspension, which was diluted with RPMI media to a final volume of 200 μL per well. The control well received the same inoculum without any compound. The plates were incubated for 24 h at 37 °C. Fungal and microbial growth were visually observed in the control wells, and the minimum inhibitory concentration (MIC) was determined as the lowest concentration at which no growth was detected in the wells. Amphotericin B was used as a standard antifungal drug.

B. subtilis (ATCC-6633) = experiment: microbe, parasite or virus in culture; format: cell-based, Bacillus subtilis; conditions: ATCC-6633, 24 h
Protocol: as §1, §2, §3

A. fumigatus (Af-293) = experiment: microbe, parasite or virus in culture; format: cell-based, Aspergillus fumigatus; conditions: RPMI 1640 with 2% D-glucose, HEPES, 10^6 cells/mL, 24 and 48 h at 35 °C, no visible growth; triplicates, repeated twice
Protocol: as §4
A. fumigatus (Af-293) was cultured on Sabouraud dextrose agar (SDA) (Lot #3431660, Oxoid) for 48–72 h at 35 °C to obtain fresh and mature colonies which reached the proper sporulation then used to prepare the inoculum. The colonies were covered with Phosphate-Buffered Saline (PBS) containing 0.025% Tween-20, scraped from the plate, and carefully collected into a sterile tube. The suspension was centrifuged at 3000 RPM for 5 min after the separation between conidia and hyphae. The supernatant was discarded, and the pellet was resuspended in 5 mL of PBS.
Peptide concentrations of 50, 25, 12.5, 6.25, and 3.1 μg/mL were tested in triplicate. Each well of a 96-well plate was inoculated with the prepared inoculum suspension, which was diluted with RPMI 1640 medium containing L-glutamine, supplemented with 2% D-glucose, and the pH adjusted using HEPES buffer. The plates were incubated for 50 min at 35 °C to achieve a final cell concentration of 10^6 cells/mL. The control wells contained the same inoculum without any compound. The plates were then incubated for 24 and 48 h at 35 °C. Fungal growth was visualized, and the minimum inhibitory concentration (MIC) was determined as the lowest peptide concentration, where no growth was observed.

[1] = cited from earlier work
Source text: We hypothesized that these peptides can be used as a broad-spectrum antibiotic and antifungal agents by interacting with bacterial and fungal membranes. The head-to-tail cyclization and incorporation of unnatural amino acids could provide improved stability against degradation in the biological environment. […] For example, we have previously shown the plasma stability of [DipR]5. Approximately 15% degradation of [DipR]5 was observed within the first hour, but the rate of de ...

## N=C(N)NCCC[C@@H]1NC(=O)[C@H](C(c2ccccc2)c2ccccc2)NC(=O)[C@H](CCCNC(=N)N)NC(=O)[C@H](C(c2ccccc2)c2ccccc2)NC(=O)[C@H](CCCNC(=N)N)NC(=O)[C@H](C(c2ccccc2)c2ccccc2)NC(=O)[C@H](CCCNC(=N)N)NC(=O)[C@H](C(c2ccccc2)c2ccccc2)NC(=O)[C@H](CCCNC(=N)N)NC(=O)[C@H](C(c2ccccc2)c2ccccc2)NC1=O [[DipR]5] (cyclo([Dip]R[Dip]R[Dip]R[Dip]R[Dip]R))
MRSA (ATCC BAA-1556)
  MIC: 3.1 µM (≈ 5.88 µg/mL)
C. albicans (ATCC 60193)
  MIC: 13.1 µM (≈ 24.9 µg/mL)
B. subtilis (ATCC-6633)
  MIC: 6.3 µM (≈ 12 µg/mL)
A. fumigatus (Af-293)
  MIC: 1.6 µM (≈ 3.04 µg/mL)
[1]
  degradation in plasma: Approximately 15%
